MIC data for 7 molecules are collected here from DBAASP.

What all share (assay): ≥ marks a high value that may be exact or a test limit, other limits are often not marked, values filed in µg/mL are converted to µM
Assay [1] deals with Escherichia coli K-12.
Assay [2] concerns Pseudomonas aeruginosa PA330.
The subject of assay [3] is Pseudomonas aeruginosa PAO1.
The subject of assay [4] is Pseudomonas aeruginosa PA214.
The subject of assay [5] is Pseudomonas aeruginosa H187.
In assay [6] the test system is Escherichia coli UB1005.
In assay [7] the test system is Salmonella enterica ATCC H9812.
The test system of assay [8] is Staphylococcus aureus ATCC 29213.
Assay [9] relates to Enterococcus faecalis 1F-1.
Assay [10] concerns Bacillus subtilis ATCC 6051.
Assay [11] relates to Proteus mirabilis ATCC 35659.
Assay [12] concerns Escherichia coli ATCC 25922.
Assay [13] relates to Enterococcus faecium 5F-10.
The subject of assay [14] is Bacillus cereus ATCC 14579.
The subject of assay [15] is Bacillus licheniformis ATCC 14580.
For assay [16], the system named is Bacillus amyloliquefaciens ATCC 23842.
Assay [17] relates to Salmonella enterica subsp. enterica CMCC 47020.
Assay [18] concerns Staphylococcus aureus CMCC 26074.
Assay [19] has as its system Staphylococcus aureus ATCC 25923.
In assay [20] the test system is Salmonella enterica subsp. enterica serovar Typhimurium ATCC 14028.
Assay [21] relates to Salmonella enterica subsp. enterica serovar Typhi CMCC 50071.
Assay [22] has as its system Salmonella enterica subsp. enterica serovar Pullorum C79-13.
The subject of assay [23] is Cronobacter sakazakii ATCC 29544.
In assay [24] the test system is Salmonella enterica subsp. enterica serovar Typhimurium C77-31.
Assay [25] relates to Listeria monocytogenes CMCC 54004.
Assay [26] deals with Bacillus cereus CMCC 6303.
Assay [27] concerns Escherichia coli KCTC 1682.
Assay [28] has as its system Staphylococcus epidermidis KCTC 1917.
Assay [29] concerns Pseudomonas aeruginosa KCTC 1637.
In assay [30] the test system is Salmonella typhimurium KCTC 1926.
Assay [31] has as its system Bacillus subtilis KCTC 3068.
Assay [32] has as its system Staphylococcus aureus KCTC 1621.
The test system of assay [33] is Staphylococcus aureus SH1000.
Assay [34] concerns Escherichia coli DH5alpha.

≈ marks a conversion by molar mass, not a printed value. Where only a bound is given, the exact number is not on record here.

In the case of `C[C@H](NC(=O)[C@H](C)NC(=O)[C@H](CCCCN)NC(=O)[C@H](Cc1ccccc1)NC(=O)[C@H](C)NC(=O)[C@H](CCCCN)NC(=O)[C@H](C)NC(=O)[C@H](Cc1c[nH]c2ccccc12)NC(=O)[C@H](C)NC(=O)[C@H](CCCCN)NC(=O)[C@H](C)NC(=O)[C@H](Cc1ccccc1)NC(=O)[C@H](C)NC(=O)[C@H](CCCCN)NC(=O)[C@H](C)NC(=O)[C@H](CCCCN)NC(=O)[C@@H](N)CCCCN)C(N)=O` [KKAKAFAKAWAKAFKAA], the minimal inhibitory concentration (MIC) in [1] was 12.5 µM (≈ 22.9 µg/mL); in [2], at least 50 µM; in assay [3] it was 25 µM (≈ 45.9 µg/mL); in [4] it was at least 50 µM.

On to `CC(C)C[C@H](NC(=O)[C@H](C)NC(=O)[C@H](CCCCN)NC(=O)[C@H](Cc1ccccc1)NC(=O)[C@H](CC(C)C)NC(=O)[C@H](CCCCN)NC(=O)[C@H](C)NC(=O)[C@H](Cc1c[nH]c2ccccc12)NC(=O)[C@H](CC(C)C)NC(=O)[C@H](CCCCN)NC(=O)[C@H](CC(C)C)NC(=O)[C@H](Cc1ccccc1)NC(=O)[C@H](C)NC(=O)[C@H](C)NC(=O)[C@H](CCCCN)NC(=O)[C@H](CCCCN)NC(=O)[C@@H](N)CCCCN)C(N)=O` [KKKAAFLKLWAKLFKAL], for which the minimal inhibitory concentration (MIC) was found to be 3.1 µM (≈ 6.21 µg/mL) in [1], 6.3 µM (≈ 12.6 µg/mL) in assay [2], 3.1 µM (≈ 6.21 µg/mL) in [3] and 3.1 µM (≈ 6.21 µg/mL) in assay [4].

For the molecule `CC[C@H](C)[C@H](NC(=O)[C@H](Cc1ccccc1)NC(=O)[C@H](CCCCN)NC(=O)[C@H](CCCCN)NC(=O)[C@H](Cc1c[nH]c2ccccc12)NC(=O)[C@@H](N)CCCCN)C(=O)N[C@@H](CCCCN)C(=O)N[C@@H](CCC(=O)O)C(=O)N[C@@H](CC(C)C)C(=O)N[C@@H](CCC(N)=O)C(=O)N[C@@H](CCCCN)C(=O)N[C@H](C(=O)N[C@@H](CC(C)C)C(=O)N[C@@H](C)C(=O)N1CCC[C@H]1C(=O)NCC(=O)NCC(=O)N[C@@H](CC(C)C)C(=O)N[C@@H](CC(C)C)C(=O)N[C@@H](CO)C(=O)N[C@@H](CC(N)=O)C(=O)N[C@H](C(=O)N[C@H](C(=O)N[C@H](C(=O)N[C@@H](CO)C(=O)N[C@@H](CC(C)C)C(=O)O)[C@@H](C)O)C(C)C)[C@@H](C)CC)C(C)C` [KWKKFIKELQKVLAPGGLLSNIVTSL], the values for the MIC in assay [5] and in assay [6] were 3.43 µM (≈ 10 µg/mL) and 1.72 µM (≈ 5 µg/mL), respectively.

As for `CC(C)C[C@H](NC(=O)[C@@H](N)CC(C)C)C(=O)N[C@@H](CO)C(=O)N[C@@H](CCCN=C(N)N)C(=O)N[C@H](C(=O)O)C(C)C` [LLSRV], the minimum inhibitory concentration (MIC) in [7] was at least 218 µM; in assay [8] it was above 218 µM; in [9] it was at least 218 µM; in assay [10], at least 218 µM; in assay [11] it was at least 218 µM; in [12], above 218 µM. Further, the minimal inhibitory concentration (MIC) was at least 218 µM in [13]; at least 218 µM in assay [14]; at least 218 µM in [15]; above 218 µM in assay [3]; at least 218 µM in assay [16].

As for `CC[C@H](C)[C@H](NC(=O)[C@H](CCCN=C(N)N)NC(=O)[C@H](CCCN=C(N)N)NC(=O)[C@H](CCCCN)NC(=O)[C@@H](N)CCCN=C(N)N)C(=O)N[C@H](C(=O)N[C@H](C(=O)N[C@H](C(=O)N[C@@H](CCCN=C(N)N)C(=O)N[C@@H](CCCN=C(N)N)C(=O)N[C@@H](CCCCN)C(=O)N[C@@H](CCCN=C(N)N)C(N)=O)[C@@H](C)CC)C(C)C)C(C)C` [RKRRIVVIRRKR], the MIC is at least 256 µM in [17]; at least 256 µM in assay [18]; above 256 µM in [19]; 128 µM (≈ 209 µg/mL) in assay [20]; at least 256 µM in assay [21]; at least 256 µM in assay [22]. Further, the minimum inhibitory concentration (MIC) in [6] was at least 256 µM; in [23] it was at least 256 µM; in [24], at least 256 µM; in assay [25], at least 32 µM; in [26], at least 128 µM.

`CC[C@H](C)[C@@H]1NC(=O)[C@H](CCCN=C(N)N)NC(=O)[C@@H](NC(=O)[C@H](CC(C)C)NC(=O)[C@@H](N)CCCN=C(N)N)CSSC[C@@H](C(=O)N[C@@H](CCCN=C(N)N)C(N)=O)NC(=O)[C@H](C(C)C)NC(=O)[C@H](CCCN=C(N)N)NC(=O)[C@H]([C@@H](C)CC)NC(=O)[C@H](C(C)C)NC(=O)[C@H](C(C)C)NC1=O` [RLCRIVVIRVCR]: the MIC was 8.41 µM (≈ 12.5 µg/mL) in assay [27]; at least 128 µM in assay [17]; at least 256 µM in [18]; above 256 µM in assay [19]; 4.21 µM (≈ 6.24 µg/mL) in assay [28]; 128 µM (≈ 190 µg/mL) in assay [20]. In addition, the MIC in assay [21] is at least 64 µM; in assay [29], 16.8 µM (≈ 25 µg/mL); in assay [22] it was at least 256 µM; in assay [6], at least 128 µM; in [23] it was at least 256 µM; in assay [24], at least 256 µM. Moreover, the minimum inhibitory concentration (MIC) in assay [30] is 4.21 µM (≈ 6.24 µg/mL); in assay [31], 4.21 µM (≈ 6.24 µg/mL); in [25] it was at least 128 µM; in assay [26], at least 64 µM; in [32], 4.21 µM (≈ 6.24 µg/mL).

With `CC[C@H](C)[C@H](NC(=O)[C@H](C)NC(=O)[C@H](CCCCN)NC(=O)[C@@H](NC(=O)[C@H](CC(C)C)NC(=O)[C@H](CCCCN)NC(=O)[C@H](CCCCN)NC(=O)[C@@H](NC(=O)CNC(=O)[C@H](C)NC(=O)[C@H](Cc1ccccc1)NC(=O)[C@H](Cc1ccc(O)cc1)NC(=O)[C@@H]1CCCN1C(=O)[C@H](CC(=O)O)NC(=O)[C@@H](N)Cc1c[nH]c2ccccc12)C(C)C)[C@@H](C)O)C(=O)N[C@@H](CC(C)C)C(=O)N[C@@H](C)C(=O)N[C@H](C(=O)N[C@@H](CCCN=C(N)N)C(=O)N[C@@H](C)C(N)=O)C(C)C` [WDPYFAGVKKLTKAILAVRA], the MIC in assay [33] and in assay [34] was at least 50 µM in each case.

As usually defined, the MIC is the smallest concentration in the dilution series that meets the test's criterion for growth inhibition. The low end stands for inhibition by little substance, the high end for a need for much substance.
